Bridges are numbered along the chain shown (N, C = ends). Where no end group is shown, it is not given here. [ ]: non-standard residue; d: D form.
Assays:
Stability in serum = type: in vitro ADME; details: 37° C., completely stable
From the text: As an approach to identifying such stable analogs, various derivatives of (S)-3-(undec-10-enoyl)-aminoglutarimide have been tested for their stability in serum.

[1] = tested on: chemokine-induced migration; details: versus (S)-3-(undec-10-enoyl)-aminoglutarimide; cited from earlier work
[2] = tested on: MCP-1 induced leukocyte migration (THP-1 cells); test: Inhibition of MCP-1 induced leukocyte migration (96-well transwell assay, THP-1 cells); type: cell-based; details: Homo sapiens, MCP-1 25 ng/ml, 2 hours at 37° C., read-out: ED50 (concentration of compound required to reduce the MCP-1-induced migration by 50%)
Procedure: In principle, this assay consists of two chambers separated by a porous membrane. The chemoattractant is placed in the lower compartment and the cells are placed in the upper compartment. After incubation for a period at 37° C. the cells move towards the chemoattractant, and the number of cells in the lower compartment is proportional to the chemoattractant activity (relative to a series of controls).
The THP-1 cell line (European Cell culture Collection) were used as the leukocyte cell population.
The following procedure is used for testing the invention compounds for MCP-1 induced leukocyte migration:
First, the cell suspension to be placed in the upper compartment is prepared. The THP-1 cells are pelleted by centrifugation (770×g; 4 mins) and washed with Geys Balanced Salt Solution with 1 mg/ml BSA (GBSS+BSA). This wash is then repeated, and the cells repelleted before being resuspended in a small volume of GBSS+BSA for counting, for example using a standard haemocytometer.
The volume of GBSS+BSA is then adjusted depending on the number of cells present so that the cells are at final density of 4.45×10^6 cells per ml of GBSS+BSA. This ensures that there are […] THP-1 cells in each 25 μl of the solution that will be placed in the upper chamber of the plate.
To test a single compound for its ability to inhibit MCP-1 induced migration, it is necessary to prepare two lots of cells. The suspension of THP-1 cells at 4.45×10^6 cells/ml is divided into two pots. To one pot the inhibitor under test is added at an appropriate final concentration, in an appropriate vehicle (for example at 1 μM in not more than 1% DMSO). To the second pot an equal volume of GBSS+BSA plus vehicle as appropriate (e.g. not more than 1% DMSO) is added to act as a control.
Next, the chemoattractant solution to be placed in the lower compartment is prepared. MCP-1 is diluted in GBSS+BSA to give a final concentration of 25 ng/ml. This is divided into two pots, as for the cell suspension. To one pot, the test compound is added to the same final concentration as was added to the cell suspension, while to the other pot an equal volume of GBSS+BSA plus vehicle as appropriate (e.g. not more than 1% DMSO) is added.
Note that the volume of liquid that needs to be added to make the addition of the text compound needs to be taken into account, when establishing the final concentration of MCP-1 in the solution for the lower compartment and the final concentration of cells in the upper compartment.
Once the chemoattractant solutions for the lower wells and cell solutions for the upper chambers have been prepared, the migration chamber should be assembled. Place 29 μl of the appropriate chemoattractant solution into the lower well of the chamber. Assays should be performed with at least triplicate determinations of each condition. Once all the lower chambers have been filled, apply the prous membrane to the chamber in accordance with the manufacturer's instructions. Finally, apply 25 μl of the appropriate cell solution to each upper chamber. A plastic lid is placed over the entire apparatus to prevent evaporation.
The assembled chamber is incubated at 37° C., 5% CO2, for 2 hours. A suspension of cells in GBSS+BSA is also incubated under identical conditions in a tube: these cells will be used to construct a standard curve for determining the number of cells that have migrated to the lower chamber under each condition. […]

[3] = cited from earlier work

Row | Compound | EC50 [2] | other results
1 | C=CCCCCCCCCC(=O)[C@@H]1CCCNC1=O [(S)-3-(undec-10-enoyl)-tetrahydropyridin-2-one] | – | stability in human serum (Stability in serum): at least 7 days; potency compared with the parental molecule [1]: considerably reduced potency
2 | CCCCCCCCCCC(C)(C)C(=O)N[C@H]1CCCNC1=O [Example 3, (S)-3-(2′,2′-Dimethyldodecanoylamino)-tetrahydropyridin-2-one] | ≤ 100 nM | –
3 | CCCCCCCCCCC(C)(C)C(=O)N[C@H]1CCNC1=O [Example 4, (S)-3-(2′,2′-Dimethyldodecanoylamino)-pyrrolidin-2-one] | ≤ 100 nM | –
4 | c(DCys-DGln-DIle-DTrp-DLys-DGln-DLys-DPro-DAsp-DLeu-DCys)-NH2 ([dC][dQ][dI][dW][dK][dQ][dK][dP][dD][dL][dC]-NH2; disulfide 1-11 (inferred)) [NR58-3.14.3] | – | half-life period of clearance from blood plasma ([3]; after intravenous injection): less than 30 minutes; oral bioavailability ([3]; in vivo, po): not orally bioavailable

More lines, main results first:

Row | EC50 [2] | Compound | other results
5 | ≤ 100 nM | CC1(C(=O)N[C@H]2CCCNC2=O)CCCCC1 [Example 5, (S)-3-(1′-Methylcyclohexanecarbonyl)amino-tetrahydropyridin-2-one] | –
6 | ≤ 100 nM | CC1(C(=O)N[C@H]2CCNC2=O)CCCCC1 [Example 6, (S)-3-(1′-Methylcyclohexanecarbonyl)amino-pyrrolidin-2-one] | –
7 | ≤ 100 nM | O=C1NCCC[C@@H]1NC(=O)C1(c2ccccc2)CCCCC1 [Example 7, (S)-3-(1′-Phenylcyclohexanecarbonyl)amino-tetrahydropyridin-2-one] | –
